{"source": "patent US20120270819A1", "about": "“USE OF COMPOUNDS WITH SGLT-1/SGLT-2 INHIBITOR ACTIVITY FOR PRODUCING MEDICAMENTS FOR TREATMENT OF BONE DISEASE” (SANOFI, priority 2009, published 2012)", "system": "female Sprague-Dawley mature and young adult rats", "experiment": "Ex vivo dual energy X-ray absorptiometry (DXA) of right femur, 28-day oral rat study", "type": "in vivo", "settings": "Young Adults", "description": "The following were evaluated: clinical signs (at least weekly), body weight (weekly), food consumption (weekly), hormones (Days 13 and 27), serum and urinary biochemical markers of bone turnover (Days 13 and 27), serum chemistry (at necropsy), bone densitometry by dual energy X-ray absorptiometry (DXA) and peripheral quantitative computed tomography (pQCT) (Week 2 and 4, as well as ex vivo), macroscopic observations at necropsy, organ weights, histopathology, biomechanical strength testing and femoral length measurements.\n3.1 Ex Vivo Dual Energy X-Ray Absorptiometry (DXA)\nDXA was used to measure bone mineral density (BMD), bone mineral content (BMC) and area. Single DXA scans were obtained for the excised right femur from all animals euthanized at the end of the treatment period (except three animals due to damaged femoral condyles) as well as two found dead animals. These exclusions had no adverse impact on the overall outcome of the study as sufficient specimens were measured in each groups. Scans were performed with a Hologic Discovery A bone densitometer as per PCS-MTL Standard Operating Procedures.", "data": [{"compound": "COc1ccc(Cc2c(OC3OC(CO)C(F)C(O)C3O)n[nH]c2C(F)(F)F)cc1", "note": "(stereo not drawn) [Example 5 of formula II]", "values": [{"measurement": "DXA femur Distal Area, percent difference from Vehicle Control", "setting": "10 mg/kg/day", "result": 1.7, "unit": "%"}, {"measurement": "DXA femur Distal BMC, percent difference from Vehicle Control", "setting": "10 mg/kg/day", "result": 6.4, "unit": "%"}, {"measurement": "DXA femur Distal BMD, percent difference from Vehicle Control", "setting": "10 mg/kg/day", "result": 4.7, "unit": "%"}, {"measurement": "DXA femur Global Area, percent difference from Vehicle Control", "setting": "10 mg/kg/day", "result": "−2.5", "unit": "%"}, {"measurement": "DXA femur Global BMC, percent difference from Vehicle Control", "setting": "10 mg/kg/day", "result": 0.5, "unit": "%"}, {"measurement": "DXA femur Global BMD, percent difference from Vehicle Control", "setting": "10 mg/kg/day", "result": 3.2, "unit": "%"}, {"measurement": "DXA femur Mid Area, percent difference from Vehicle Control", "setting": "10 mg/kg/day", "result": "−0.9", "unit": "%"}, {"measurement": "DXA femur Mid BMC, percent difference from Vehicle Control", "setting": "10 mg/kg/day", "result": "−2.6", "unit": "%"}, {"measurement": "DXA femur Mid BMD, percent difference from Vehicle Control", "setting": "10 mg/kg/day", "result": "−1.9", "unit": "%"}, {"measurement": "DXA femur Proximal Area, percent difference from Vehicle Control", "setting": "10 mg/kg/day", "result": "−2.6", "unit": "%"}, {"measurement": "DXA femur Proximal BMC, percent difference from Vehicle Control", "setting": "10 mg/kg/day", "result": "−0.8", "unit": "%"}, {"measurement": "DXA femur Proximal BMD, percent difference from Vehicle Control", "setting": "10 mg/kg/day", "result": 1.8, "unit": "%"}, {"measurement": "DXA femur Mid Area, percent difference from Vehicle Control", "setting": "10 mg/kg/day (Table 6a)", "result": "−0.89", "unit": "%"}, {"measurement": "DXA femur Mid BMC, percent difference from Vehicle Control", "setting": "10 mg/kg/day (Table 6a)", "result": "−2.61", "unit": "%"}, {"measurement": "DXA femur Mid BMD, percent difference from Vehicle Control", "setting": "10 mg/kg/day (Table 6a)", "result": "−1.87", "unit": "%"}, {"measurement": "DXA femur Distal Area", "setting": "10 mg/kg/day, mean", "result": 0.37, "unit": "cm^2"}, {"measurement": "DXA femur Distal BMC", "setting": "10 mg/kg/day, mean", "result": 0.10, "unit": "g"}, {"measurement": "DXA femur Distal BMD", "setting": "10 mg/kg/day, mean", "result": 0.26, "unit": "g/cm^2"}, {"measurement": "DXA femur Global Area", "setting": "10 mg/kg/day, mean", "result": 1.45, "unit": "cm^2"}, {"measurement": "DXA femur Global BMC", "setting": "10 mg/kg/day, mean", "result": 0.30, "unit": "g"}, {"measurement": "DXA femur Global BMD", "setting": "10 mg/kg/day, mean", "result": 0.21, "unit": "g/cm^2"}, {"measurement": "DXA femur Mid Area", "setting": "10 mg/kg/day, mean", "result": 0.39, "unit": "cm^2"}, {"measurement": "DXA femur Mid BMC", "setting": "10 mg/kg/day, mean", "result": 0.07, "unit": "g"}, {"measurement": "DXA femur Mid BMD", "setting": "10 mg/kg/day, mean", "result": 0.17, "unit": "g/cm^2"}, {"measurement": "DXA femur Proximal Area", "setting": "10 mg/kg/day, mean", "result": 0.50, "unit": "cm^2"}, {"measurement": "DXA femur Proximal BMC", "setting": "10 mg/kg/day, mean", "result": 0.11, "unit": "g"}, {"measurement": "DXA femur Proximal BMD", "setting": "10 mg/kg/day, mean", "result": 0.22, "unit": "g/cm^2"}, {"measurement": "DXA femur Mid Area", "setting": "10 mg/kg/day, mean (Table 6a)", "result": 0.39, "unit": "cm^2"}, {"measurement": "DXA femur Mid BMC", "setting": "10 mg/kg/day, mean (Table 6a)", "result": 0.07, "unit": "g"}, {"measurement": "DXA femur Mid BMD", "setting": "10 mg/kg/day, mean (Table 6a)", "result": 0.17, "unit": "g/cm^2"}, {"measurement": "DXA femur Distal Area, percent difference from Vehicle Control", "setting": "50 mg/kg/day", "result": 0.5, "unit": "%"}, {"measurement": "DXA femur Distal BMC, percent difference from Vehicle Control", "setting": "50 mg/kg/day", "result": 8.4, "unit": "%"}, {"measurement": "DXA femur Distal BMD, percent difference from Vehicle Control", "setting": "50 mg/kg/day", "result": 7.9, "unit": "%"}, {"measurement": "DXA femur Global Area, percent difference from Vehicle Control", "setting": "50 mg/kg/day", "result": "−4.7", "unit": "%"}, {"measurement": "DXA femur Global BMC, percent difference from Vehicle Control", "setting": "50 mg/kg/day", "result": 0.0, "unit": "%"}, {"measurement": "DXA femur Global BMD, percent difference from Vehicle Control", "setting": "50 mg/kg/day", "result": 4.9, "unit": "%"}, {"measurement": "DXA femur Mid Area, percent difference from Vehicle Control", "setting": "50 mg/kg/day", "result": "−0.8", "unit": "%"}, {"measurement": "DXA femur Mid BMC, percent difference from Vehicle Control", "setting": "50 mg/kg/day", "result": "−3.2", "unit": "%"}, {"measurement": "DXA femur Mid BMD, percent difference from Vehicle Control", "setting": "50 mg/kg/day", "result": "−2.6", "unit": "%"}, {"measurement": "DXA femur Proximal Area, percent difference from Vehicle Control", "setting": "50 mg/kg/day", "result": "−4.9", "unit": "%"}, {"measurement": "DXA femur Proximal BMC, percent difference from Vehicle Control", "setting": "50 mg/kg/day", "result": "−4.0", "unit": "%"}, {"measurement": "DXA femur Proximal BMD, percent difference from Vehicle Control", "setting": "50 mg/kg/day", "result": 1.0, "unit": "%"}, {"measurement": "DXA femur Mid Area, percent difference from Vehicle Control", "setting": "50 mg/kg/day (Table 6a)", "result": "−0.77", "unit": "%"}, {"measurement": "DXA femur Mid BMC, percent difference from Vehicle Control", "setting": "50 mg/kg/day (Table 6a)", "result": "−3.16", "unit": "%"}, {"measurement": "DXA femur Mid BMD, percent difference from Vehicle Control", "setting": "50 mg/kg/day (Table 6a)", "result": "−2.62", "unit": "%"}, {"measurement": "DXA femur Distal Area", "setting": "50 mg/kg/day, mean", "result": 0.37, "unit": "cm^2"}, {"measurement": "DXA femur Distal BMC", "setting": "50 mg/kg/day, mean", "result": 0.10, "unit": "g"}, {"measurement": "DXA femur Distal BMD", "setting": "50 mg/kg/day, mean", "result": 0.27, "unit": "g/cm^2"}, {"measurement": "DXA femur Global Area", "setting": "50 mg/kg/day, mean", "result": 1.42, "unit": "cm^2"}, {"measurement": "DXA femur Global BMC", "setting": "50 mg/kg/day, mean", "result": 0.30, "unit": "g"}, {"measurement": "DXA femur Global BMD", "setting": "50 mg/kg/day, mean", "result": 0.21, "unit": "g/cm^2"}, {"measurement": "DXA femur Mid Area", "setting": "50 mg/kg/day, mean", "result": 0.39, "unit": "cm^2"}, {"measurement": "DXA femur Mid BMC", "setting": "50 mg/kg/day, mean", "result": 0.07, "unit": "g"}, {"measurement": "DXA femur Mid BMD", "setting": "50 mg/kg/day, mean", "result": 0.17, "unit": "g/cm^2"}, {"measurement": "DXA femur Proximal Area", "setting": "50 mg/kg/day, mean", "result": 0.49, "unit": "cm^2"}, {"measurement": "DXA femur Proximal BMC", "setting": "50 mg/kg/day, mean", "result": 0.11, "unit": "g"}, {"measurement": "DXA femur Proximal BMD", "setting": "50 mg/kg/day, mean", "result": 0.21, "unit": "g/cm^2"}, {"measurement": "DXA femur Mid Area", "setting": "50 mg/kg/day, mean (Table 6a)", "result": 0.39, "unit": "cm^2"}, {"measurement": "DXA femur Mid BMC", "setting": "50 mg/kg/day, mean (Table 6a)", "result": 0.07, "unit": "g"}, {"measurement": "DXA femur Mid BMD", "setting": "50 mg/kg/day, mean (Table 6a)", "result": 0.17, "unit": "g/cm^2"}]}]}
